Measurements: patent US11485725B2, “Derivatives of piperlongumine and uses thereof” (Auransa Inc., priority 2017, dated 2022)

Key:
[1] = system: HCT116 (colorectal cancer) cells; test: Resazurin-based cell viability assay using colorectal cancer cells; conditions: Homo sapiens, HCT-116, 72 hr incubation
Procedure, shortened: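 HCT116 cells in DMEM/10% FBS grown 24 h, then exposed to serially diluted compounds for 72 h at 37 °C. Viability read as resazurin (1 mM) fluorescence (ex 535/em 590 nm) after 4–6 h; background-subtracted, normalised to DMSO control, IC50 fitted from percent survival.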

MOLP-8 = test: In vitro cell viability assay (CellTiter-Glo, ATP levels), multiple myeloma cells; format: cell-based; conditions: Homo sapiens, MOLP-8, 168 h, 7-day incubation, CellTiter-Glo, average values; read-out: MOLP-8 IC50
Procedure, shortened: (§1)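 Cells plated overnight, then exposed to compounds over a concentration range for 7 days at 37 °C, 5% CO2. Viability read as ATP luminescence (CellTiter-Glo), normalised to positive and negative control wells; IC50 from Hill-equation non-linear regression of concentration–response curves.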

[2] = In vivo pharmacokinetic analysis, plasma; design: species or system Balb/C female mice; conditions: mice, result in words
Description: In Vivo Pharmacokinetic Analysis
Age 8 to 9 weeks Balb/C female mice were used for this study. The mice were maintained in a special pathogen-free environment and in disposable cages. Animal room was set to maintain temperature and relative humidity at 23° C.±3° C. and 55%±15%, respectively. Housing room was on a 12:12 light/dark cycle. Water was supplied ad libitum to each cage via water bottles. All mice were fed rodent diet with 18% protein. All animals were weighed before commencement of the study.
Compound 1 was stored at 4° C. protected from light. Dosing solutions were used within 2 hours of preparation. Compound 1 was formulated within 2 hours prior to dosing by adding the pre-calculated volume of PEG 400 (40% of total solution volume). Formulated compound 1 was vortexed and sonicated until a clear solution was formed. […]
The concentration of Compound 1 was determined by a UPLC-TIS-MS-MS method (ultra performance liquid chromatography-turbo ion spray-tandem mass spectrometry). […]
Mass spectrometric analysis was performed using an AB Sciex API5000 with Turbo Ion Spray interface operating in a positive ionization mode. Quantification was performed using multiple reaction monitoring (MRM) method with the transitions of (m/z) 316.104→(m/z) 219.014 for Compound 1 and (m/z) 455.346→(m/z) 165 for verapamil (internal standard). […]

[3] = In vitro microsome stability analyses; format: in vitro ADME; conditions: result in words
DU4475 = test: In vitro cell viability assay (CellTiter-Glo, ATP levels), triple negative breast cancer cells; format: cell-based; conditions: Homo sapiens, DU-4475, 168 h, 7-day incubation, CellTiter-Glo, average values; read-out: DU4475 IC50
Procedure, shortened: as §1

Row | SMILES | IC50 [1] | IC50 (MOLP-8) | in vivo plasma half-life (t1/2) as compared to piperlongumine [2] | potency and/or metabolic stability [3] | IC50 (DU4475)
1 | COc1cc(/C=C/C(=O)N2CCC=CC2=O)cc2c1OCCO2 [Compound 1, (E)-1-(3-(8-methoxy-2,3-dihydrobenzo[b][1,4]dioxin-6-yl)acryloyl)-5,6-dihydropyridin-2(1H)-one] | 1900 nM | 740 nM | increased in vivo plasma half-life (t1/2) as compared to piperlongumine | demostrated potency and/or metabolic stability | 830 nM
2 | O=C1C=CCCCN1C(=O)/C=C/c1cnc2c(c1)OCCO2 [Compound 26, (E)-1-(3-(2,3-dihydro-[1,4]dioxino[2,3-b]pyridin-7-yl)acryloyl)-6,7-dihydro-1H-azepin-2(5H)-one] | 3420 nM | 170 nM | – | – | 630 nM
3 | CC1C=CC(=O)N(C(=O)/C=C/c2ncccn2)C1 (centres unmarked) [Compound 43, (E)-5-methyl-1-(3-(pyrimidin-2-yl)acryloyl)-5,6-dihydropyridin-2(1H)-one] | 1270 nM | 280 nM | – | – | 530 nM
4 | O=C(Nc1ccc(F)cc1)N1CCC(/C=C/S(=O)(=O)N2CCC=CC2=O)CC1 [Compound 82, (E)-N-(4-fluorophenyl)-4-(2-((6-oxo-3,6-dihydropyridin-1(2H)-yl)sulfonyl)vinyl)piperidine-1-carboxamide] | 2250 nM | 360 nM | – | – | 800 nM
5 | O=C1C=CCCCN1C(=O)/C=C/c1ccncc1 [Compound 5, (E)-1-(3-(pyridin-4-yl)acryloyl)-1,5,6,7-tetrahydro-2H-azepin-2-one] | 2000 nM | 490 nM | – | – | 570 nM
6 | O=C1C=CCCN1C(=O)C=C(c1ccccc1)c1ccccc1 [Compound 29, 1-(3,3-diphenylacryloyl)-5,6-dihydropyridin-2(1H)-one] | 6400 nM | 2700 nM | – | – | 1720 nM
